Data on eleven compounds can be found in ChEMBL document CHEMBL1135741, “Synthesis and biological evaluation of analogues of the peptaibol ampullosporin A” (J Med Chem, 2002).

Where a SMILES comes first, the peptide text is derived from it. [ ]: non-standard residue; d: D form. ξ: configuration not given here. Oic(3aξ,7aξ) = O=C(O)[C@@H]1CC2CCCCC2N1; 2Nal = N[C@@H](Cc1ccc2ccccc2c1)C(=O)O; Igl = N[C@H](C(=O)O)C1Cc2ccccc2C1; Tic = O=C(O)[C@@H]1Cc2ccccc2CN1; Leu(ol) = CC(C)C[C@H](N)CO; Aib = CC(C)(N)C(=O)O

The species named for one assay is Mus musculus. As to the kind of experiment: Evaluated for its ability to modify the core body temperature of mice; No activity. In kind it is functional, organism-based.
The subject of assay [1] is Remotididymella destructiva. As to the kind of experiment: Evaluated for pigment induction capacity based on the Phoma destructiva halo color; No activity. In kind it is functional, organism-based.

Consider `CC(=O)N1Cc2ccccc2C[C@H]1C(=O)N[C@@H](C)C(=O)NC(C)(C)C(=O)NC(C)(C)C(=O)N[C@@H](CC(C)C)C(=O)NC(C)(C)C(=O)N[C@@H](CCC(N)=O)C(=O)NC(C)(C)C(=O)NC(C)(C)C(=O)NC(C)(C)C(=O)N[C@@H](CCC(N)=O)C(=O)N[C@@H](CC(C)C)C(=O)NC(C)(C)C(=O)N[C@@H](CCC(N)=O)C(=O)N[C@H](CO)CC(C)C` (Ac-[Tic]A[Aib][Aib]L[Aib]Q[Aib][Aib][Aib]QL[Aib]Q[Leu(ol)]), for which the NA result in the assay listed under Mus musculus was “No activity”. Consider `CC(C)C[C@@H](CO)NC(=O)[C@H](CCC(N)=O)NC(=O)C(C)(C)NC(=O)[C@H](CC(C)C)NC(=O)[C@H](CCC(N)=O)NC(=O)C(C)(C)NC(=O)C(C)(C)NC(=O)C(C)(C)NC(=O)[C@H](CCC(N)=O)NC(=O)C(C)(C)NC(=O)[C@H](CC(C)C)NC(=O)C(C)(C)NC(=O)C(C)(C)NC(=O)[C@H](C)N` (H-A[Aib][Aib]L[Aib]Q[Aib][Aib][Aib]QL[Aib]Q[Leu(ol)]), for which the NA result (in assay [1]; in the assay listed under Mus musculus) was “No activity” throughout. As for `CC(=O)N[C@@H](Cc1c[nH]c2ccccc12)C(=O)N[C@@H](C)C(=O)NC(C)(C)C(=O)NC(C)(C)C(=O)N[C@@H](CC(C)C)C(=O)N[C@@H](C)C(=O)N[C@@H](CCC(N)=O)C(=O)NC(C)(C)C(=O)NC(C)(C)C(=O)NC(C)(C)C(=O)N[C@@H](CCC(N)=O)C(=O)N[C@@H](CC(C)C)C(=O)NC(C)(C)C(=O)N[C@@H](CCC(N)=O)C(=O)N[C@H](CO)CC(C)C` (Ac-WA[Aib][Aib]LAQ[Aib][Aib][Aib]QL[Aib]Q[Leu(ol)]), the NA result in the assay listed under Mus musculus was “No activity”. Still for that read-out and setting: next, `CC(=O)N[C@H](C(=O)N[C@@H](C)C(=O)NC(C)(C)C(=O)NC(C)(C)C(=O)N[C@@H](CC(C)C)C(=O)NC(C)(C)C(=O)N[C@@H](CCC(N)=O)C(=O)NC(C)(C)C(=O)NC(C)(C)C(=O)NC(C)(C)C(=O)N[C@@H](CCC(N)=O)C(=O)N[C@@H](CC(C)C)C(=O)NC(C)(C)C(=O)N[C@@H](CCC(N)=O)C(=O)N[C@H](CO)CC(C)C)C1Cc2ccccc2C1` (Ac-[Igl]A[Aib][Aib]L[Aib]Q[Aib][Aib][Aib]QL[Aib]Q[Leu(ol)]): “No activity”; `CC(C)C[C@@H](CO)NC(=O)[C@H](CCC(N)=O)NC(=O)C(C)(C)NC(=O)[C@H](CC(C)C)NC(=O)[C@H](CCC(N)=O)NC(=O)C(C)(C)NC(=O)C(C)(C)NC(=O)C(C)(C)NC(=O)[C@H](CCC(N)=O)NC(=O)C(C)(C)NC(=O)[C@H](CC(C)C)NC(=O)C(C)(C)NC(=O)C(C)(C)NC(=O)[C@H](C)NC(=O)[C@@H](N)Cc1c[nH]c2ccccc12` (H-WA[Aib][Aib]L[Aib]Q[Aib][Aib][Aib]QL[Aib]Q[Leu(ol)]): “No activity”. Take `CC(=O)N[C@@H](C)C(=O)NC(C)(C)C(=O)NC(C)(C)C(=O)N[C@@H](CC(C)C)C(=O)NC(C)(C)C(=O)N[C@@H](CCC(N)=O)C(=O)NC(C)(C)C(=O)NC(C)(C)C(=O)NC(C)(C)C(=O)N[C@@H](CCC(N)=O)C(=O)N[C@@H](CC(C)C)C(=O)NC(C)(C)C(=O)N[C@@H](CCC(N)=O)C(=O)N[C@H](CO)CC(C)C` (Ac-A[Aib][Aib]L[Aib]Q[Aib][Aib][Aib]QL[Aib]Q[Leu(ol)]): the NA entry (in assay [1]; in the assay filed under Mus musculus) was “No activity” in each case. On to `CC[C@@H](C)[C@H](NC(=O)[C@H](CC(C)C)NC(=O)[C@@H](NC(=O)[C@@H](NC(=O)[C@H](C)NC(=O)[C@H](Cc1c[nH]c2ccccc12)NC(C)=O)[C@@H](C)CC)[C@H](C)CC)C(=O)N[C@@H](CCC(N)=O)C(=O)N[C@H](C(=O)N[C@H](C(=O)N[C@H](C(=O)N[C@@H](CCC(N)=O)C(=O)N[C@@H](CC(C)C)C(=O)N[C@H](C(=O)N[C@@H](CCC(N)=O)C(=O)N[C@H](CO)CC(C)C)[C@@H](C)CC)[C@H](C)CC)[C@@H](C)CC)[C@H](C)CC`, for which the NA entry (in assay [1]; in the assay listed under Mus musculus) was “No activity” each time.

Regarding `CC(=O)N[C@@H](Cc1c[nH]c2ccccc12)C(=O)N[C@@H](C)C(=O)N[C@@H](C)C(=O)N[C@@H](C)C(=O)N[C@@H](CC(C)C)C(=O)N[C@@H](C)C(=O)N[C@@H](CCC(N)=O)C(=O)N[C@@H](C)C(=O)N[C@@H](C)C(=O)N[C@@H](C)C(=O)N[C@@H](CCC(N)=O)C(=O)N[C@@H](CC(C)C)C(=O)N[C@@H](C)C(=O)N[C@@H](CCC(N)=O)C(=O)N[C@H](CO)CC(C)C` (Ac-WAAALAQAAAQLAQ[Leu(ol)]), the NA result (in assay [1]; in the assay listed under Mus musculus) was “No activity” each time. For `CC(=O)N[C@@H](Cc1c[nH]c2ccccc12)C(=O)N[C@@H](C)C(=O)NC(C)(C)C(=O)NC(C)(C)C(=O)N[C@@H](CC(C)C)C(=O)NC(C)(C)C(=O)N[C@@H](CCC(N)=O)C(=O)NC(C)(C)C(=O)NC(C)(C)C(=O)NC(C)(C)C(=O)N[C@@H](CCC(N)=O)C(=O)N[C@@H](CC(C)C)C(=O)NC(C)(C)C(=O)N[C@@H](CCC(N)=O)C(=O)O` (Ac-WA[Aib][Aib]L[Aib]Q[Aib][Aib][Aib]QL[Aib]Q-OH), the NA entry (in assay [1]; in the assay filed under Mus musculus) was “No activity” in each case. Consider `CC(=O)N1C2CCCCC2C[C@H]1C(=O)N[C@@H](C)C(=O)NC(C)(C)C(=O)NC(C)(C)C(=O)N[C@@H](CC(C)C)C(=O)NC(C)(C)C(=O)N[C@@H](CCC(N)=O)C(=O)NC(C)(C)C(=O)NC(C)(C)C(=O)NC(C)(C)C(=O)N[C@@H](CCC(N)=O)C(=O)N[C@@H](CC(C)C)C(=O)NC(C)(C)C(=O)N[C@@H](CCC(N)=O)C(=O)N[C@H](CO)CC(C)C` (some centres not stated) (Ac-[Oic(3aξ,7aξ)]A[Aib][Aib]L[Aib]Q[Aib][Aib][Aib]QL[Aib]Q[Leu(ol)]), for which the NA entry (in assay [1]; in the assay filed under Mus musculus) was “No activity” in each case.

Take `CC(=O)N[C@@H](Cc1ccc2ccccc2c1)C(=O)N[C@@H](C)C(=O)NC(C)(C)C(=O)NC(C)(C)C(=O)N[C@@H](CC(C)C)C(=O)NC(C)(C)C(=O)N[C@@H](CCC(N)=O)C(=O)NC(C)(C)C(=O)NC(C)(C)C(=O)NC(C)(C)C(=O)N[C@@H](CCC(N)=O)C(=O)N[C@@H](CC(C)C)C(=O)NC(C)(C)C(=O)N[C@@H](CCC(N)=O)C(=O)N[C@H](CO)CC(C)C` (Ac-[2Nal]A[Aib][Aib]L[Aib]Q[Aib][Aib][Aib]QL[Aib]Q[Leu(ol)]): the NA entry in the assay listed under Mus musculus is “No activity”.
